Entries after “also recorded” stand apart in the source; their conditions may differ. Where two headings read alike, the source gives them in different places. Values belong to the compound of their own block, whether it stands above or below them.
Experiments:
[1] = test system: SCTR; experiment: β-Arrestin1 recruitment; settings: COS-7, % of max, receptor only, mean ± SEM n≥3
[2] = test system: SCTR; experiment: Gαq activation; settings: HEK293A, % of max, receptor only, mean ± SEM n≥3
[3] = test system: SCTR; experiment: cAMP accumulation; settings: COS-7; vector (no RAMP); % of max, receptor only; mean ± SEM n≥3
[4] = test system: SCTR; experiment: β-Arrestin2 recruitment; settings: COS-7, % of max, receptor only, mean ± SEM n≥3
[5] = target: T1, SV1 (Homo sapiens, UniProt Q02643); experiment: β-Arrestin1 recruitment; settings: COS-7, COS-7, % of max, receptor only, mean ± SEM n≥3
T1 sequence (Q02643 90-423 limits assumed): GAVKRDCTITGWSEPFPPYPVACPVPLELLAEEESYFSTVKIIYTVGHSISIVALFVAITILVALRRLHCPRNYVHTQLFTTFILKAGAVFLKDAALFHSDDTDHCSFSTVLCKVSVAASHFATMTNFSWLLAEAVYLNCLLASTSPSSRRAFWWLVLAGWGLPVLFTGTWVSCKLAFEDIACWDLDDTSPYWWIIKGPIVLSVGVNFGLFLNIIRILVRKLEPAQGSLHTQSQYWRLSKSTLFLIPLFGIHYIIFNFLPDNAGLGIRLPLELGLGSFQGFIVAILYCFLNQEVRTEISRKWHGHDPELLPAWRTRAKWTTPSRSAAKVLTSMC

[6] = target: T1, SV1; experiment: cAMP accumulation; settings: COS-7, COS-7, % of max, receptor only, mean ± SEM n≥3
[7] = target: T2, GHRHR (Homo sapiens, UniProt Q02643); experiment: β-Arrestin1 recruitment; settings: COS-7, COS-7, % of max, receptor only, mean ± SEM n≥3
T2 sequence (Q02643 23-423): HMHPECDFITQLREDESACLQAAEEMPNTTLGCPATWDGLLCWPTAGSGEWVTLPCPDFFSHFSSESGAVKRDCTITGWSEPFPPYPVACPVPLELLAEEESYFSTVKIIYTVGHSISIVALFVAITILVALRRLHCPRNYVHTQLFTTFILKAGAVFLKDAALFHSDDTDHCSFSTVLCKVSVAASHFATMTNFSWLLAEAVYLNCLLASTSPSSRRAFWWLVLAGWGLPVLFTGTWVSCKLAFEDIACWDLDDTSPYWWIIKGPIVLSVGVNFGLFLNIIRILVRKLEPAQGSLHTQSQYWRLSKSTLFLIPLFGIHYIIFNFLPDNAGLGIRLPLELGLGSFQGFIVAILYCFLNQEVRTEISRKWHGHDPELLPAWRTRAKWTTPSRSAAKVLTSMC

[8] = target: T2, GHRHR; experiment: Gαq activation; settings: HEK293-A, HEK293A, % of max, receptor only, mean ± SEM n≥3
[9] = target: T2, GHRHR; experiment: cAMP accumulation; settings: COS-7, COS-7, % of max, receptor only, mean ± SEM n≥3
[10] = target: T1, SV1; experiment: Gαq activation; settings: HEK293A; no RAMP; data not shown
[11] = target: CLR (Homo sapiens, UniProt Q16602); experiment: BRET GPCR–RAMP interaction; type: binding; settings: COS-7; receptor-Rluc8:RAMP-Ypet 1:0.25 to 1:16; pH 7.4, 37 °C; mean ± SEM n≥3
Chain of CLR (Q16602 23-461): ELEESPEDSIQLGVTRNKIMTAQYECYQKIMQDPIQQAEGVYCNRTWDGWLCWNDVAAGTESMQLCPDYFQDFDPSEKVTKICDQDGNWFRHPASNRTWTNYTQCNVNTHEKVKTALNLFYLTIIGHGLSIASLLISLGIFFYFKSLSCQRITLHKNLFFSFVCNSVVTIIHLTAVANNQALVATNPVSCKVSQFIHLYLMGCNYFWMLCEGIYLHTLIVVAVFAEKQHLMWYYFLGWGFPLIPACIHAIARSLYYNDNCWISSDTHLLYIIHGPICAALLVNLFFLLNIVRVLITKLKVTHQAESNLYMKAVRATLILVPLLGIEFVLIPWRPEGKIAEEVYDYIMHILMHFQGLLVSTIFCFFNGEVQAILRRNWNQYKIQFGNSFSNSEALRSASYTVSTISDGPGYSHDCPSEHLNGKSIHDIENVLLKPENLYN

[12] = target: T1, SV1; experiment: BRET GPCR–RAMP interaction; type: binding; settings: COS-7; receptor-Rluc8:RAMP-Ypet 1:0.25 to 1:16; pH 7.4, 37 °C; mean ± SEM n≥3
[13] = test system: SCTR; experiment: BRET GPCR–RAMP interaction; type: binding; settings: COS-7; receptor-Rluc8:RAMP-Ypet 1:0.25 to 1:16; pH 7.4, 37 °C; mean ± SEM n≥3
[14] = target: T2, GHRHR; settings: HEK293T cells ref [11]; cited from earlier work
[15] = test system: COS-7 cells; experiment: RAMP cell surface expression; type: cell-based; settings: co-expression with SCTR, FLAG-RAMP
[16] = target: GCGR (Homo sapiens, UniProt P47871); experiment: BRET GPCR–RAMP interaction; type: binding; settings: COS-7; receptor-Rluc8:RAMP-Ypet 1:0.25 to 1:16; pH 7.4, 37 °C; mean ± SEM n≥3
Chain of GCGR (P47871 26-477, species assumed): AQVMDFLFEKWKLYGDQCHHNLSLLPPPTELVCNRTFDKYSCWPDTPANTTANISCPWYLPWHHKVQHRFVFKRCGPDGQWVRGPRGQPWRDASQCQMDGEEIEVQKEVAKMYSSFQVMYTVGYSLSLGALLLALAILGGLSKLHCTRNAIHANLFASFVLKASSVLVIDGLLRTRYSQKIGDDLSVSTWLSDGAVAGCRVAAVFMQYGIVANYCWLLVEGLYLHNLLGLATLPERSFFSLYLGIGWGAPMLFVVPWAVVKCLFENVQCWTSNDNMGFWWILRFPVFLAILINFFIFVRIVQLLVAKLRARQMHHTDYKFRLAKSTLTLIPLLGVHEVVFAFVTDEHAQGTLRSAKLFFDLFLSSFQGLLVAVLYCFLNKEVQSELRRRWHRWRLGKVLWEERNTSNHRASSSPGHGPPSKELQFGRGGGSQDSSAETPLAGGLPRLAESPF

[17] = target: T3, GLP-2R (Homo sapiens, UniProt O95838); experiment: BRET GPCR–RAMP interaction; type: binding; settings: COS-7
T3 sequence (O95838 1-553): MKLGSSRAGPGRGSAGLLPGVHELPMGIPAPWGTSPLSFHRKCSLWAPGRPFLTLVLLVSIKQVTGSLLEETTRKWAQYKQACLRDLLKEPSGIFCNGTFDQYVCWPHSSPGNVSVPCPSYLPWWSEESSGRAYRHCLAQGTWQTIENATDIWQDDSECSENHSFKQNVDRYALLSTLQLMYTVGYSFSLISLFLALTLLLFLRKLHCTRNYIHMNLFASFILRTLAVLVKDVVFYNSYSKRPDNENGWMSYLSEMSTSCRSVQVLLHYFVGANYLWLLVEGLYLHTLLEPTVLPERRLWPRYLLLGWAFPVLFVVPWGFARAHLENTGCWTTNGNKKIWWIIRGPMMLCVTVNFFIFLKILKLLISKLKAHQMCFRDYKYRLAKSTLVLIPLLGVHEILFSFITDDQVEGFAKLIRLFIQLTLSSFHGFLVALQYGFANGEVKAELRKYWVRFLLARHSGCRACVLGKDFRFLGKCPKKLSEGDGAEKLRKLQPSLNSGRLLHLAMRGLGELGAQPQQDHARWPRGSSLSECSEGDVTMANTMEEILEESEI

[18] = target: T4, GIPR (Homo sapiens, UniProt P48546); experiment: BRET GPCR–RAMP interaction; type: binding; settings: COS-7; receptor-Rluc8:RAMP-Ypet 1:0.25 to 1:16; pH 7.4, 37 °C; mean ± SEM n≥3
T4 sequence (P48546 22-466): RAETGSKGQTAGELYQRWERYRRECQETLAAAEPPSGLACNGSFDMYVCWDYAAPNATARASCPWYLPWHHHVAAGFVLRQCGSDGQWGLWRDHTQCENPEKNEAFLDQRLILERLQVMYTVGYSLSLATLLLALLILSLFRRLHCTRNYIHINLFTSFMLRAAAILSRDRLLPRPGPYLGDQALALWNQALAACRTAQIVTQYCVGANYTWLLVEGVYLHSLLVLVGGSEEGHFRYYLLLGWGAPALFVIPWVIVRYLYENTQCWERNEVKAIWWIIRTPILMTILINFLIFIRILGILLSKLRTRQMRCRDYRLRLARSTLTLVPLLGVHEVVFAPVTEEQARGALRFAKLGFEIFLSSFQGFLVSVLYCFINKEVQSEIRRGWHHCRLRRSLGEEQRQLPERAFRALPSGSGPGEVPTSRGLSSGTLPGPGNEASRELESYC

[19] = target: T2, GHRHR; experiment: BRET GPCR–RAMP interaction; type: binding; settings: COS-7
[20] = target: GLP-1R (Homo sapiens, UniProt P43220); experiment: BRET GPCR–RAMP interaction; type: binding; settings: COS-7; receptor-Rluc8:RAMP-Ypet 1:0.25 to 1:16; pH 7.4, 37 °C; mean ± SEM n≥3
Chain of GLP-1R (P43220 24-463): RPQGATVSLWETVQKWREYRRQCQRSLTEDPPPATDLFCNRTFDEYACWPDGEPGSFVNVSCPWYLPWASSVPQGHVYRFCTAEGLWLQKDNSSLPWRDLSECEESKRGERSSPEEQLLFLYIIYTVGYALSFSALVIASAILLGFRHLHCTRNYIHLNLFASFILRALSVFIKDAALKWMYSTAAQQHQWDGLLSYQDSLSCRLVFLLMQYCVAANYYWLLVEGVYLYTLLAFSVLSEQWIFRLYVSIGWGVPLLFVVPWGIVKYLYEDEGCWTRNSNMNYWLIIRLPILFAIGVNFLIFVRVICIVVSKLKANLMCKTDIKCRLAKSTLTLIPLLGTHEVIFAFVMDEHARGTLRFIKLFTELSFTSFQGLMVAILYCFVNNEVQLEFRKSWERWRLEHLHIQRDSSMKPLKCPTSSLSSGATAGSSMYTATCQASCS

[21] = test system: β2-AR; experiment: β-Arrestin2 recruitment; settings: COS-7, mean ± SEM n≥3; for Emax: % of max, receptor only
[22] = test system: β2-AR; experiment: cAMP accumulation; settings: COS-7, mean ± SEM n≥3
[23] = test system: β2-AR; experiment: Gαq activation; settings: HEK293A, mean ± SEM n≥3
[24] = test system: β2-AR; experiment: β-Arrestin1 recruitment; settings: COS-7, mean ± SEM n≥3; for Emax: % of max, receptor only
[25] = receptor-Rluc8:RAMP-Ypet 1:0.25 to 1:16, pH 7.4, 37 °C, mean ± SEM n≥3

Compound: secretin
Emax ([1]; RAMP1): 91.8 ± 3.6%
Emax ([1]; RAMP3): 69.1 ± 4.9∗∗ %
Emax ([1]; vector (no RAMP)): 100 ± 5.6%
Emax ([2]; RAMP1): 127.7 ± 13.5%
Emax ([2]; RAMP3): 97.8 ± 21.1%
Emax ([2]; vector (no RAMP)): 100 ± 14.1%
Emax [3]: 100 ± 1%
Emax ([4]; RAMP1): 81 ± 6.2%
Emax ([4]; RAMP3): 67 ± 4.2∗∗ %
Emax ([4]; vector (no RAMP)): 100 ± 4%

Emax ([5]; RAMP1): 188 ± 36.8%
Emax ([5]; RAMP2): 182 ± 44.2%
Emax ([5]; RAMP3): 168 ± 49.1%
Emax ([5]; vector (no RAMP)): 100 ± 11.2%
Emax ([6]; RAMP1): 100 ± 3.4%
Emax ([6]; RAMP2): 102 ± 4.2%
Emax ([6]; RAMP3): 100 ± 2%
Emax ([6]; vector (no RAMP)): 100 ± 1.8%
Emax ([7]; RAMP1): 124 ± 42.2%
Emax ([7]; RAMP2): 124 ± 34%
Emax ([7]; RAMP3): 102 ± 45.7%
Emax ([7]; vector (no RAMP)): 100 ± 25.3%
Emax ([8]; RAMP1): 91.8 ± 8.3%
Emax ([8]; RAMP3): 87.9 ± 8%
Emax ([8]; vector (no RAMP)): 100 ± 6.9%
Emax ([9]; RAMP1): 104 ± 1.2%
Emax ([9]; RAMP2): 102 ± 1.4%
Emax ([9]; RAMP3): 100 ± 1.5%
Gαq response, receptor alone [10]: did not affect Gαq response
Compound: CC[C@H](C)[C@H](NC(=O)[C@H](C)NC(=O)[C@H](CC(=O)O)NC(=O)[C@H](C)NC(=O)[C@@H](N)Cc1ccc(O)cc1)C(=O)N[C@@H](Cc1ccccc1)C(=O)N[C@H](C(=O)N[C@@H](CC(N)=O)C(=O)N[C@@H](CO)C(=O)N[C@@H](Cc1ccc(O)cc1)C(=O)N[C@@H](CCCNC(=N)N)C(=O)N[C@@H](CCCCN)C(=O)N[C@H](C(=O)N[C@@H](CC(C)C)C(=O)NCC(=O)N[C@@H](CCC(N)=O)C(=O)N[C@@H](CC(C)C)C(=O)N[C@@H](CO)C(=O)N[C@@H](C)C(=O)N[C@@H](CCCNC(=N)N)C(=O)N[C@@H](CCCCN)C(=O)N[C@@H](CC(C)C)C(=O)N[C@@H](CC(C)C)C(=O)N[C@@H](CCC(N)=O)C(=O)N[C@@H](CC(=O)O)C(=O)N[C@H](C(=O)N[C@@H](CCSC)C(=O)N[C@@H](CO)C(=O)N[C@@H](CCCNC(=N)N)C(=O)N[C@@H](CCC(N)=O)C(=O)N[C@@H](CCC(N)=O)C(=O)NCC(=O)N[C@@H](CCC(=O)O)C(=O)N[C@@H](CO)C(=O)N[C@@H](CC(N)=O)C(=O)N[C@@H](CCC(N)=O)C(=O)N[C@@H](CCC(=O)O)C(=O)N[C@@H](CCCNC(=N)N)C(=O)NCC(=O)N[C@@H](C)C(=O)N[C@@H](CCCNC(=N)N)C(=O)N[C@@H](C)C(=O)N[C@@H](CCCNC(=N)N)C(=O)N[C@@H](CC(C)C)C(N)=O)[C@@H](C)CC)C(C)C)[C@@H](C)O [GHRH, growth hormone-releasing hormone]

Bmax (maximum measured BRET value) [11]: 0.460 ± 0.017
Bmax (maximum measured BRET value) [12]: 1.364 ± 0.244
Bmax (maximum measured BRET value) [16]: 1.149 ± 0.109
Bmax (maximum measured BRET value) [17, 25]: Linear fit
Bmax (maximum measured BRET value) [18]: 1.316 ± 0.203
interaction in words ([19]; BRET): readily observed
Bmax (maximum measured BRET value) [19, 25]: 1.122 ± 0.193
Bmax (maximum measured BRET value) [20]: 2.039 ± 1.234
Compound: receptor activity-modulating protein 1 [RAMP1]
Bmax (maximum measured BRET value) [13]: 0.573 ± 0.021
interaction in words [14]: insignificant
RAMP cell surface expression [15]: promoted cell surface translocation
interaction in words ([17]; BRET): poor interaction; also recorded: rather weak

pEC50 ([21]; RAMP1): 6.7 ± 0.2
pEC50 ([21]; RAMP2): 6.5 ± 0.2
pEC50 ([21]; RAMP3): 6.4 ± 0.2
pEC50 ([21]; vector (no RAMP)): 6.4 ± 0.1
pEC50 ([22]; RAMP1): 9.6 ± 0.1
pEC50 ([22]; RAMP2): 9.7 ± 0
pEC50 ([22]; RAMP3): 9.7 ± 0.1
pEC50 ([22]; vector (no RAMP)): 9.6 ± 0
pEC50 ([23]; RAMP1): 6.5 ± 0.2
pEC50 ([23]; RAMP2): 6.3 ± 0.4
pEC50 ([23]; RAMP3): 6.9 ± 0.3
pEC50 ([23]; vector (no RAMP)): 6.9 ± 0.2
pEC50 ([24]; RAMP1): 6 ± 0.4
pEC50 ([24]; RAMP2): 5.8 ± 0.5
pEC50 ([24]; RAMP3): 6 ± 0.4
pEC50 ([24]; vector (no RAMP)): 6.2 ± 0.3
Compound: (−)-Adrenaline
Emax ([21]; RAMP1): 79.1 ± 5.7%
Emax ([21]; RAMP2): 90 ± 5.4%
Emax ([21]; RAMP3): 79.2 ± 6.1%
Emax ([24]; RAMP1): 77.3 ± 11.1%
Emax ([24]; RAMP2): 83.4 ± 15%

Source: article PMC8897147 (Acta Pharmaceutica Sinica. B, 2021)
